Legend:
Test in all cases: relative viability (nuclei count vs DMSO), 5 days (fraction); higher = more cells survive
[1] = compound: Cc1nc(Nc2ncc(C(=O)Nc3c(C)cccc3Cl)s2)cc(N2CCN(CCO)CC2)n1 [Dasatinib] + CC(=O)c1c(C)c2cnc(Nc3ccc(N4CCNCC4)cn3)nc2n(C2CCCC2)c1=O [Palbociclib] (partner 0.5 µM)
Summary of the method: (§1)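 Medians of duplicate plates are given as relative viability. That measure is the nuclei count in treated wells divided by the count in vehicle wells. Counts were taken on 4× images of lung cancer cell lines in 1536-well plates, 5 days after pin-tool dosing the day after seeding with one drug alone or a fixed anchor-drug dose plus five library-drug doses (not always all listed) in √10 steps.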

[2] = compound: Cc1nc(Nc2ncc(C(=O)Nc3c(C)cccc3Cl)s2)cc(N2CCN(CCO)CC2)n1 [Dasatinib] + Nc1ncn([C@H]2C[C@H](O)[C@@H](CO)O2)c(=O)n1 [Decitabine] (partner 2 µM)
Summary of the method: as §1

[3] = compound: C1CC1C(=O)NC2=NNC3=C2C=CC(=C3)C4=CC(=CC=C4)C(=O)NC5CC5 [XMD13-2] + C[C@@H](Oc1cc(-c2cnn(C3CCNCC3)c2)cnc1N)c1c(Cl)ccc(F)c1Cl [Crizotinib] (partner 1 µM)
Summary of the method: as §1

[4] = compound: Cc1nc(Nc2ncc(C(=O)Nc3c(C)cccc3Cl)s2)cc(N2CCN(CCO)CC2)n1 [Dasatinib] + CC(C)C[C@H](NC(=O)[C@H](Cc1ccccc1)NC(=O)c1cnccn1)B(O)O [Bortezomib] (partner 0.002 µM)
Summary of the method: as §1

For SK-LU-1, the relative viability ([1]; first compound 0.005 µM) was 0.34, the relative viability ([1]; first compound 0.01581 µM) was 0.228 and the relative viability ([1]; first compound 0.05 µM) was 0.241. For the same cell line, the relative viability ([1]; first compound 0.1581 µM) was 0.207, the relative viability ([1]; first compound 0.5 µM) was 0.189 and the relative viability ([2]; first compound 0.005 µM) was 0.609. The relative viability ([2]; first compound 0.01581 µM) was 0.449, the relative viability ([2]; first compound 0.05 µM) was 0.437 and the relative viability ([2]; first compound 0.1581 µM) was 0.282. It also gave a relative viability ([2]; first compound 0.5 µM) of 0.24, a relative viability ([3]; first compound 0.05 µM) of 0.912 and a relative viability ([3]; first compound 0.1581 µM) of 0.966. For the same cell line, the relative viability ([3]; first compound 0.5 µM) was 1, the relative viability ([3]; first compound 1.581 µM) was 0.828 and the relative viability ([3]; first compound 5 µM) was 0.944. It also gave a relative viability ([4]; first compound 0.005 µM) of 0.954, a relative viability ([4]; first compound 0.01581 µM) of 0.777 and a relative viability ([4]; first compound 0.05 µM) of 0.726. It also gave a relative viability ([4]; first compound 0.1581 µM) of 0.33 and a relative viability ([4]; first compound 0.5 µM) of 0.406.

NCI-H1395 gave a relative viability ([1]; first compound 0.005 µM) of 0.594, a relative viability ([1]; first compound 0.01581 µM) of 0.588 and a relative viability ([1]; first compound 0.05 µM) of 0.535. For the same cell line, the relative viability ([1]; first compound 0.1581 µM) was 0.443, the relative viability ([1]; first compound 0.5 µM) was 0.304 and the relative viability ([2]; first compound 0.005 µM) was 0.73. It also gave a relative viability ([2]; first compound 0.01581 µM) of 0.669, a relative viability ([2]; first compound 0.05 µM) of 0.694 and a relative viability ([2]; first compound 0.1581 µM) of 0.57. The relative viability ([2]; first compound 0.5 µM) was 0.326.

NCI-H2228 gave a relative viability ([1]; first compound 0.005 µM) of 0.73, a relative viability ([1]; first compound 0.01581 µM) of 0.611 and a relative viability ([1]; first compound 0.05 µM) of 0.652. It also gave a relative viability ([1]; first compound 0.1581 µM) of 0.364, a relative viability ([1]; first compound 0.5 µM) of 0.367 and a relative viability ([3]; first compound 0.05 µM) of 0.714. It also gave a relative viability ([3]; first compound 0.1581 µM) of 0.442, a relative viability ([3]; first compound 0.5 µM) of 0.496 and a relative viability ([3]; first compound 1.581 µM) of 0.445. It also gave a relative viability ([3]; first compound 5 µM) of 0.513, a relative viability ([4]; first compound 0.005 µM) of 0.645 and a relative viability ([4]; first compound 0.01581 µM) of 0.988. It also gave a relative viability ([4]; first compound 0.05 µM) of 0.888, a relative viability ([4]; first compound 0.1581 µM) of 0.691 and a relative viability ([4]; first compound 0.5 µM) of 0.47.

NCI-H1944 showed a relative viability ([1]; first compound 0.005 µM) of 0.315, a relative viability ([1]; first compound 0.01581 µM) of 0.242 and a relative viability ([1]; first compound 0.05 µM) of 0.249. It also gave a relative viability ([1]; first compound 0.1581 µM) of 0.119, a relative viability ([1]; first compound 0.5 µM) of 0.111 and a relative viability ([2]; first compound 0.005 µM) of 0.439. It also gave a relative viability ([2]; first compound 0.01581 µM) of 0.39, a relative viability ([2]; first compound 0.05 µM) of 0.36 and a relative viability ([2]; first compound 0.1581 µM) of 0.272. For the same cell line, the relative viability ([2]; first compound 0.5 µM) was 0.189, the relative viability ([3]; first compound 0.05 µM) was 1.42 and the relative viability ([3]; first compound 0.1581 µM) was 1.11. The relative viability ([3]; first compound 0.5 µM) was 1.14, the relative viability ([3]; first compound 1.581 µM) was 1.35 and the relative viability ([3]; first compound 5 µM) was 1.09.

Cell Line NCI-H2342 has a relative viability ([1]; first compound 0.005 µM) of 0.483, a relative viability ([1]; first compound 0.01581 µM) of 0.646 and a relative viability ([1]; first compound 0.05 µM) of 0.464. For the same cell line, the relative viability ([1]; first compound 0.1581 µM) was 0.393, the relative viability ([1]; first compound 0.5 µM) was 0.267 and the relative viability ([2]; first compound 0.005 µM) was 0.685. The relative viability ([2]; first compound 0.01581 µM) was 0.598, the relative viability ([2]; first compound 0.05 µM) was 0.632 and the relative viability ([2]; first compound 0.1581 µM) was 0.51. For the same cell line, the relative viability ([2]; first compound 0.5 µM) was 0.321.

For NCI-H1793, the relative viability ([1]; first compound 0.005 µM) was 0.217, the relative viability ([1]; first compound 0.01581 µM) was 0.279 and the relative viability ([1]; first compound 0.05 µM) was 0.236. For the same cell line, the relative viability ([1]; first compound 0.1581 µM) was 0.247, the relative viability ([1]; first compound 0.5 µM) was 0.231 and the relative viability ([2]; first compound 0.005 µM) was 0.504. The relative viability ([2]; first compound 0.01581 µM) was 0.427, the relative viability ([2]; first compound 0.05 µM) was 0.295 and the relative viability ([2]; first compound 0.1581 µM) was 0.328. For the same cell line, the relative viability ([2]; first compound 0.5 µM) was 0.323.

NCI-H1299 gave a relative viability ([3]; first compound 0.05 µM) of 1.02, a relative viability ([3]; first compound 0.1581 µM) of 0.954 and a relative viability ([3]; first compound 0.5 µM) of 0.99. The relative viability ([3]; first compound 1.581 µM) was 0.948, the relative viability ([3]; first compound 5 µM) was 0.904 and the relative viability ([4]; first compound 0.005 µM) was 1.04. The relative viability ([4]; first compound 0.01581 µM) was 1.02, the relative viability ([4]; first compound 0.05 µM) was 1.14 and the relative viability ([4]; first compound 0.1581 µM) was 0.612. The relative viability ([4]; first compound 0.5 µM) was 0.485.

Cell Line NCI-H522 has a relative viability ([1]; first compound 0.005 µM) of 1.1, a relative viability ([1]; first compound 0.01581 µM) of 0.802 and a relative viability ([1]; first compound 0.05 µM) of 0.985. It also gave a relative viability ([1]; first compound 0.1581 µM) of 0.773, a relative viability ([1]; first compound 0.5 µM) of 0.722 and a relative viability ([2]; first compound 0.005 µM) of 0.745. For the same cell line, the relative viability ([2]; first compound 0.01581 µM) was 0.767, the relative viability ([2]; first compound 0.05 µM) was 0.671 and the relative viability ([2]; first compound 0.1581 µM) was 0.655. The relative viability ([2]; first compound 0.5 µM) was 0.61.

In the case of NCI-H596, the relative viability ([2]; first compound 0.005 µM) is reported as 0.955, the relative viability ([2]; first compound 0.01581 µM) is reported as 0.916 and the relative viability ([2]; first compound 0.05 µM) is reported as 0.724. For the same cell line, the relative viability ([2]; first compound 0.1581 µM) was 0.668, the relative viability ([2]; first compound 0.5 µM) was 0.542 and the relative viability ([3]; first compound 0.05 µM) was 1.05. For the same cell line, the relative viability ([3]; first compound 0.1581 µM) was 0.916, the relative viability ([3]; first compound 0.5 µM) was 0.98 and the relative viability ([3]; first compound 1.581 µM) was 0.884. It also gave a relative viability ([3]; first compound 5 µM) of 1.05, a relative viability ([4]; first compound 0.005 µM) of 0.928 and a relative viability ([4]; first compound 0.01581 µM) of 0.815. The relative viability ([4]; first compound 0.05 µM) was 0.826, the relative viability ([4]; first compound 0.1581 µM) was 0.525 and the relative viability ([4]; first compound 0.5 µM) was 0.515.

For NCI-H2170, the relative viability ([1]; first compound 0.005 µM) was 0.377, the relative viability ([1]; first compound 0.01581 µM) was 0.394 and the relative viability ([1]; first compound 0.05 µM) was 0.397. For the same cell line, the relative viability ([1]; first compound 0.1581 µM) was 0.288, the relative viability ([1]; first compound 0.5 µM) was 0.204 and the relative viability ([2]; first compound 0.005 µM) was 0.439. The relative viability ([2]; first compound 0.01581 µM) was 0.422, the relative viability ([2]; first compound 0.05 µM) was 0.392 and the relative viability ([2]; first compound 0.1581 µM) was 0.344. The relative viability ([2]; first compound 0.5 µM) was 0.225, the relative viability ([3]; first compound 0.05 µM) was 1.27 and the relative viability ([3]; first compound 0.1581 µM) was 1.17. The relative viability ([3]; first compound 0.5 µM) was 1.34, the relative viability ([3]; first compound 1.581 µM) was 1.19 and the relative viability ([3]; first compound 5 µM) was 1.16.

Work on NCI-H1648 yielded a relative viability ([1]; first compound 0.005 µM) of 0.281, a relative viability ([1]; first compound 0.01581 µM) of 0.29 and a relative viability ([1]; first compound 0.05 µM) of 0.334. For the same cell line, the relative viability ([1]; first compound 0.1581 µM) was 0.298, the relative viability ([1]; first compound 0.5 µM) was 0.243 and the relative viability ([2]; first compound 0.005 µM) was 0.494. It also gave a relative viability ([2]; first compound 0.01581 µM) of 0.477, a relative viability ([2]; first compound 0.05 µM) of 0.506 and a relative viability ([2]; first compound 0.1581 µM) of 0.457. The relative viability ([2]; first compound 0.5 µM) was 0.241.

Cell Line NCI-H1703 has a relative viability ([3]; first compound 0.05 µM) of 1.11, a relative viability ([3]; first compound 0.1581 µM) of 0.997 and a relative viability ([3]; first compound 0.5 µM) of 0.874. For the same cell line, the relative viability ([3]; first compound 1.581 µM) was 0.422, the relative viability ([3]; first compound 5 µM) was 0.465 and the relative viability ([4]; first compound 0.005 µM) was 0.285. For the same cell line, the relative viability ([4]; first compound 0.01581 µM) was 0.22, the relative viability ([4]; first compound 0.05 µM) was 0.247 and the relative viability ([4]; first compound 0.1581 µM) was 0.18. The relative viability ([4]; first compound 0.5 µM) was 0.121.

LK-2 was tested, and the relative viability ([1]; first compound 0.005 µM) was 0.583, the relative viability ([1]; first compound 0.05 µM) was 0.41 and the relative viability ([1]; first compound 0.1581 µM) was 0.217. For the same cell line, the relative viability ([1]; first compound 0.5 µM) was 0.223, the relative viability ([2]; first compound 0.005 µM) was 0.265 and the relative viability ([2]; first compound 0.01581 µM) was 0.308. For the same cell line, the relative viability ([2]; first compound 0.05 µM) was 0.174, the relative viability ([2]; first compound 0.1581 µM) was 0.159 and the relative viability ([2]; first compound 0.5 µM) was 0.174. For the same cell line, the relative viability ([3]; first compound 0.05 µM) was 0.214, the relative viability ([3]; first compound 0.1581 µM) was 0.219 and the relative viability ([3]; first compound 0.5 µM) was 0.25. The relative viability ([3]; first compound 1.581 µM) was 0.207 and the relative viability ([3]; first compound 5 µM) was 0.227.
